Data reported in US10925875B2 (National Jewish Health, priority 2018, dated 2021).

How the values were obtained:
Assay type in all cases: cell-based, human
[1] = tested on: intracellular IL5 expression in ILCs; test: Intracellular IL5 by FCM in isolated Lin− blood cells; conditions: Dex 10^-7 M, 5 days
Experimental: (§1) FIGS. 2C and 2D show lineage-negative (Lin−) cells (0.4×10^6 per culture) from peripheral blood obtained from 3 allergic rhinitis (non-asthmatic) patients were cultured with IL2/IL33 or IL2/TSLP with and without Dex (10^-7 M) for 5 days. Cell-free supernatant was analyzed for IL5 by ELISA. Cells were analyzed by FCM for intracellular IL5. P value for data on panel C was calculated by paired t test due to low N. Interleukin-2 (IL-2); interleukin-33 (IL-33).
(§2) The direct effect of Dex on isolated lineage− negative (Lin−) cells (representing ILCs) from the peripheral blood was examined. The effect of Dex was measured by two approaches: measurement of secreted IL5 by ELISA and measurement of the expression of intracellular IL5 by FCM. Dex inhibited IL5 secretion by IL2/IL33-stimulated ILCs by nearly 79% (FIG. 2C). In contrast, it inhibited IL5 secretion by IL2/TSLP-stimulated ILCs by only 25%. […] Dex inhibited intracellular IL5 expression in IL2/IL33- and IL2/TSLP-stimulated ILCs by 65% and 18%, respectively (FIG. 2D).

[2] = tested on: IL5+ ILC2s from the blood; test: Steroid response of blood IL5+ ILC2s by flow cytometry; conditions: MNC and BAL cells, Dex 10^−7M, 3 days, e-Fluor 780
Experimental: (§3) FIGS. 1A and 1B show the effect of dexamethasone (Dex) on blood (A) and bronchoalveolar lavage (BAL) (B) Type 2 innate lymphoid cells (ILC2s). Peripheral blood mononuclear cells (PBMC) and BAL cells from an asthmatic patient were cultured with vehicle (V, ethanol)) or dexamethasone (Dex 10^−7M), a synthetic steroid, for 3 days. The frequency of lin−CRTH2+IL7Rα+IL5+ cells (considered as markers of ILC2s) was measured by flow cytometry (FCM) and analyzed by FlowJo. Frequency of dead cells (measured by e-Fluor 780, e-Bioscience) was less than 10% and excluded from the gating. The difference in dead cells between V and Dex was less than 10%). Prostaglandin D2 receptor 2 (CRTH2); interleukin-7 receptor alpha (IL7Rα); interleukin-5 (IL-5).
FIGS. 1C and 1D show the cumulative data on the effect of dexamethasone (Dex) on blood (FIG. 1C) and BAL (FIG. 1D) lin−CRTH2+IL7Rα+IL5+ cells from 14 allergic asthmatic patients.
(§4) Steroid response of ILC2s from the bronchoalveolar lavage (BAL, obtained during bronchoscopy) and blood obtained from asthmatic patients was studied. Blood was processed to isolate mononuclear cells (MNC). BAL cells were studied without further processing. […] Interluekin-5 (IL5)-expressing ILC2s were examined by flow cytometry and analyzed by FlowJo. […] Frequency of dead cells (measured by e-Fluor 780, e-Bioscience) was less than 10% and excluded from the gating. […]

IL5 secretion by ILCs = test: Secreted IL5 by ELISA from isolated Lin− blood cells; conditions: Dex 10^-7 M, 5 days
Experimental: as §1, §2

BAL IL5+ ILC2s = test: Steroid response of BAL IL5+ ILC2s by flow cytometry; conditions: BAL cells, MS 100 μM with and without Dex 10^−7M, 3 days
Experimental: as §3, with “(IL-5). […]” for “(IL-5).”
BAL cells were cultured with MS (100 μM) with and without Dex (10^−7M) for 3 days. IL5 expression by lin−CRTH2+IL7Rα+ ILC2s was measured by FCM (N=8, *: P=0.0006 by Kruskal Walis test).
as §4, with “studied.” for “studied. Blood was processed to isolate mononuclear cells (MNC). BAL cells were studied without further processing.”

MEK1/2 in ILC2s = test: Cytokine-induced MEK1/2 in ILC2s by FCM; conditions: PBMCs, IL2 plus TSLP with and without Dex, 5 days, lin−CRTH2+ cells
Experimental: FIGS. 4A and 4B show the effect of Dex on cytokine-induced MEK1 (MEK) induction. PBMCs from an asthmatic patient were cultured with medium or IL2 plus one of the two epithelial ILC-inducing cytokines—IL33 and TSLP with and without Dex for 5 days. The expression of MEK on gated live lin−CRTH2+ cells was analyzed by FCM.
Heightened MEK1/2 mediates steroid resistance of lymphocytes. The effect of IL33 and TSLP on MEK1/2 induction and the effect of Dex was examined.

## C[C@@H]1C[C@H]2[C@@H]3CCC4=CC(=O)C=C[C@]4(C)[C@@]3(F)[C@@H](O)C[C@]2(C)[C@@]1(O)C(=O)CO [Dex, dexamethasone]
[1]; IL2/IL33-stimulated ILCs
  inhibition of intracellular IL5 expression: 65%
[1]; IL2/TSLP-stimulated ILCs
  inhibition of intracellular IL5 expression: 18%
[2]
  difference in dead cells between V and Dex: less than 10%
IL5 secretion by ILCs; IL2/IL33-stimulated ILCs
  inhibition of IL5 secretion: ~79%
IL5 secretion by ILCs; IL2/TSLP-stimulated ILCs
  inhibition of IL5 secretion: 25%
BAL IL5+ ILC2s
  inhibition of BAL IL5+ ILC2s: failed to inhibit
MEK1/2 in ILC2s
  TSLP-induced MEK1/2: failed to inhibit
